According to PubChem BioAssay (NCI):
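These data come from cells grown in 96-well plates and exposed to compound for 48 hours at five concentrations. The concentration for full growth arrest is given as TGI.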

How the values were obtained:
Assay in all cases: NCI tumour cell line growth inhibition, 48 h
KM12 colon = test system: KM12 colon
DLD-1 colon = test system: DLD-1 colon
NCI-H23 lung = test system: NCI-H23 lung
RXF-631 renal = test system: RXF-631 renal
MALME-3M melanoma = test system: MALME-3M melanoma
CAKI-1 renal = test system: CAKI-1 renal
LOX IMVI melanoma = test system: LOX IMVI melanoma
KM20L2 colon = test system: KM20L2 colon
SF-295 CNS = test system: SF-295 CNS
COLO 205 colon = test system: COLO 205 colon
EKVX NSCLC = test system: EKVX NSCLC
OVCAR-5 ovarian = test system: OVCAR-5 ovarian
SK-MEL-28 melanoma = test system: SK-MEL-28 melanoma
M14 melanoma = test system: M14 melanoma
ACHN renal = test system: ACHN renal
DMS 114 small cell lung = test system: DMS 114 small cell lung
LXFL 529 NSCLC = test system: LXFL 529 NSCLC
K-562 leukemia = test system: K-562 leukemia
SF-268 CNS = test system: SF-268 CNS
SNB-19 CNS = test system: SNB-19 CNS
SK-MEL-2 melanoma = test system: SK-MEL-2 melanoma
NCI-H226 lung = test system: NCI-H226 lung
HOP-18 NSCLC = test system: HOP-18 NSCLC
UO-31 renal = test system: UO-31 renal
A549 NSCLC = test system: A549 NSCLC
UACC-257 melanoma = test system: UACC-257 melanoma
OVCAR-8 ovarian = test system: OVCAR-8 ovarian
SN12C renal = test system: SN12C renal
M19-MEL melanoma = test system: M19-MEL melanoma
HOP-92 NSCLC = test system: HOP-92 NSCLC
HCC-2998 colon = test system: HCC-2998 colon
786-0 renal = test system: 786-0 renal
SK-MEL-5 melanoma = test system: SK-MEL-5 melanoma
IGROV1 ovarian = test system: IGROV1 ovarian
HT29 colon = test system: HT29 colon
HCT-116 colon = test system: HCT-116 colon
TK-10 renal = test system: TK-10 renal
SNB-78 CNS = test system: SNB-78 CNS
OVCAR-4 ovarian = test system: OVCAR-4 ovarian
HOP-62 NSCLC = test system: HOP-62 NSCLC
RXF 393 renal = test system: RXF 393 renal
SF-539 CNS = test system: SF-539 CNS
SNB-75 CNS = test system: SNB-75 CNS
CCRF-CEM leukemia = test system: CCRF-CEM leukemia
U251 CNS = test system: U251 CNS
SW-620 colon = test system: SW-620 colon
OVCAR-3 ovarian = test system: OVCAR-3 ovarian
UACC-62 melanoma = test system: UACC-62 melanoma
A498 renal = test system: A498 renal
NCI-H460 lung = test system: NCI-H460 lung
MOLT-4 leukemia = test system: MOLT-4 leukemia
SK-OV-3 ovarian = test system: SK-OV-3 ovarian
HL-60(TB) leukemia = test system: HL-60(TB) leukemia
HCT-15 colon = test system: HCT-15 colon
RPMI-8226 leukemia = test system: RPMI-8226 leukemia
NCI-H522 lung = test system: NCI-H522 lung
DMS 273 small cell lung = test system: DMS 273 small cell lung
XF 498 CNS = test system: XF 498 CNS
SR leukemia = test system: SR leukemia

Compound: COC(=O)C(C(=O)C(=O)Nc1cccc(O)c1)c1nc2ccc(Cl)cc2[nH]c1=O (stereo unspecified)
- TGI (KM12 colon): > 100 µM
- TGI (DLD-1 colon): > 100 µM
- TGI (NCI-H23 lung): > 100 µM
- TGI (RXF-631 renal): > 100 µM
- TGI (MALME-3M melanoma): > 100 µM
- TGI (CAKI-1 renal): > 100 µM
- TGI (LOX IMVI melanoma): > 100 µM
- TGI (KM20L2 colon): > 100 µM
- TGI (SF-295 CNS): > 100 µM
- TGI (COLO 205 colon): > 100 µM
- TGI (EKVX NSCLC): > 100 µM
- TGI (OVCAR-5 ovarian): > 100 µM
- TGI (SK-MEL-28 melanoma): > 100 µM
- TGI (M14 melanoma): > 100 µM
- TGI (ACHN renal): > 100 µM
- TGI (DMS 114 small cell lung): > 100 µM
- TGI (LXFL 529 NSCLC): > 100 µM
- TGI (K-562 leukemia): > 100 µM
- TGI (SF-268 CNS): > 100 µM
- TGI (SNB-19 CNS): > 100 µM
- TGI (SK-MEL-2 melanoma): > 100 µM
- TGI (NCI-H226 lung): > 100 µM
- TGI (HOP-18 NSCLC): > 100 µM
- TGI (UO-31 renal): > 100 µM
- TGI (A549 NSCLC): > 100 µM
- TGI (UACC-257 melanoma): > 100 µM
- TGI (OVCAR-8 ovarian): > 100 µM
- TGI (SN12C renal): > 100 µM
- TGI (M19-MEL melanoma): > 100 µM
- TGI (HOP-92 NSCLC): > 100 µM
- TGI (HCC-2998 colon): > 100 µM
- TGI (786-0 renal): > 100 µM
- TGI (SK-MEL-5 melanoma): > 100 µM
- TGI (IGROV1 ovarian): > 100 µM
- TGI (HT29 colon): > 100 µM
- TGI (HCT-116 colon): > 100 µM
- TGI (TK-10 renal): > 100 µM
- TGI (SNB-78 CNS): > 100 µM
- TGI (OVCAR-4 ovarian): > 100 µM
- TGI (HOP-62 NSCLC): > 100 µM
- TGI (RXF 393 renal): > 100 µM
- TGI (SF-539 CNS): > 100 µM
- TGI (SNB-75 CNS): > 100 µM
- TGI (CCRF-CEM leukemia): > 100 µM
- TGI (U251 CNS): > 100 µM
- TGI (SW-620 colon): > 100 µM
- TGI (OVCAR-3 ovarian): > 100 µM
- TGI (UACC-62 melanoma): > 100 µM
- TGI (A498 renal): > 100 µM
- TGI (NCI-H460 lung): > 100 µM
- TGI (MOLT-4 leukemia): > 100 µM
- TGI (SK-OV-3 ovarian): > 100 µM
- TGI (HL-60(TB) leukemia): > 100 µM
- TGI (HCT-15 colon): > 100 µM
- TGI (RPMI-8226 leukemia): > 100 µM

Compound: O=C(c1cc(=O)c2ccc(O)cc2o1)c1ccc(Cl)cc1Cl
- TGI (KM12 colon): > 100 µM
- TGI (DLD-1 colon): > 100 µM
- TGI (NCI-H23 lung): > 73.3 µM
- TGI (RXF-631 renal): > 100 µM
- TGI (MALME-3M melanoma): > 94.7 µM
- TGI (CAKI-1 renal): > 100 µM
- TGI (LOX IMVI melanoma): > 59.1 µM
- TGI (KM20L2 colon): > 100 µM
- TGI (SF-295 CNS): > 65.9 µM
- TGI (COLO 205 colon): > 38.3 µM
- TGI (EKVX NSCLC): 99.3 µM
- TGI (OVCAR-5 ovarian): > 100 µM
- TGI (SK-MEL-28 melanoma): > 100 µM
- TGI (M14 melanoma): 71.3 µM
- TGI (ACHN renal): > 100 µM
- TGI (DMS 114 small cell lung): > 64 µM
- TGI (K-562 leukemia): > 35.5 µM
- TGI (SF-268 CNS): > 100 µM
- TGI (SNB-19 CNS): > 100 µM
- TGI (SK-MEL-2 melanoma): > 100 µM
- TGI (NCI-H226 lung): 99.6 µM
- TGI (NCI-H522 lung): > 59 µM
- TGI (HOP-18 NSCLC): > 100 µM
- TGI (UO-31 renal): > 82.2 µM
- TGI (A549 NSCLC): > 100 µM
- TGI (UACC-257 melanoma): > 71.9 µM
- TGI (OVCAR-8 ovarian): > 100 µM
- TGI (SN12C renal): 72.1 µM
- TGI (M19-MEL melanoma): > 100 µM
- TGI (HOP-92 NSCLC): > 73.4 µM
- TGI (HCC-2998 colon): 58.8 µM
- TGI (786-0 renal): > 64.4 µM
- TGI (SK-MEL-5 melanoma): > 74.6 µM
- TGI (IGROV1 ovarian): > 100 µM
- TGI (HT29 colon): > 100 µM
- TGI (HCT-116 colon): > 54.1 µM
- TGI (TK-10 renal): > 100 µM
- TGI (SNB-78 CNS): > 100 µM
- TGI (OVCAR-4 ovarian): > 90.1 µM
- TGI (HOP-62 NSCLC): > 100 µM
- TGI (RXF 393 renal): 98.4 µM
- TGI (SF-539 CNS): > 25.4 µM
- TGI (SNB-75 CNS): > 100 µM
- TGI (CCRF-CEM leukemia): 39.6 µM
- TGI (DMS 273 small cell lung): > 31.6 µM
- TGI (U251 CNS): > 100 µM
- TGI (SW-620 colon): > 54.6 µM
- TGI (OVCAR-3 ovarian): > 58.9 µM
- TGI (UACC-62 melanoma): > 100 µM
- TGI (XF 498 CNS): 62.6 µM
- TGI (A498 renal): > 100 µM
- TGI (NCI-H460 lung): > 100 µM
- TGI (MOLT-4 leukemia): 22.3 µM
- TGI (SK-OV-3 ovarian): > 100 µM
- TGI (HL-60(TB) leukemia): > 100 µM
- TGI (HCT-15 colon): > 100 µM
- TGI (RPMI-8226 leukemia): > 72.7 µM

Compound: O=C(CCc1nnc2s/c(=C\c3ccccc3)c(=O)n12)Nc1cc(Cl)ccc1Cl
- TGI (KM12 colon): > 100 µM
- TGI (DLD-1 colon): > 100 µM
- TGI (NCI-H23 lung): > 100 µM
- TGI (RXF-631 renal): > 100 µM
- TGI (MALME-3M melanoma): > 100 µM
- TGI (CAKI-1 renal): > 100 µM
- TGI (LOX IMVI melanoma): > 100 µM
- TGI (KM20L2 colon): > 100 µM
- TGI (SF-295 CNS): > 100 µM
- TGI (COLO 205 colon): > 100 µM
- TGI (EKVX NSCLC): > 100 µM
- TGI (OVCAR-5 ovarian): > 100 µM
- TGI (SK-MEL-28 melanoma): > 100 µM
- TGI (M14 melanoma): > 100 µM
- TGI (ACHN renal): > 100 µM
- TGI (DMS 114 small cell lung): > 100 µM
- TGI (LXFL 529 NSCLC): > 100 µM
- TGI (K-562 leukemia): > 100 µM
- TGI (SF-268 CNS): > 100 µM
- TGI (SNB-19 CNS): > 100 µM
- TGI (SR leukemia): > 100 µM
- TGI (SK-MEL-2 melanoma): > 100 µM
- TGI (NCI-H226 lung): > 100 µM
- TGI (NCI-H522 lung): > 100 µM
- TGI (HOP-18 NSCLC): > 100 µM
- TGI (UO-31 renal): > 100 µM
- TGI (A549 NSCLC): > 100 µM
- TGI (UACC-257 melanoma): > 100 µM
- TGI (OVCAR-8 ovarian): > 100 µM
- TGI (SN12C renal): > 100 µM
- TGI (M19-MEL melanoma): > 100 µM
- TGI (HOP-92 NSCLC): > 100 µM
- TGI (HCC-2998 colon): > 100 µM
- TGI (786-0 renal): > 100 µM
- TGI (SK-MEL-5 melanoma): > 100 µM
- TGI (IGROV1 ovarian): > 100 µM
- TGI (HT29 colon): > 100 µM
- TGI (HCT-116 colon): 66.9 µM
- TGI (TK-10 renal): > 100 µM
- TGI (SNB-78 CNS): > 100 µM
- TGI (OVCAR-4 ovarian): > 100 µM
- TGI (HOP-62 NSCLC): > 100 µM
- TGI (RXF 393 renal): > 100 µM
- TGI (SF-539 CNS): > 100 µM
- TGI (SNB-75 CNS): > 100 µM
- TGI (CCRF-CEM leukemia): > 100 µM
- TGI (DMS 273 small cell lung): > 100 µM
- TGI (U251 CNS): > 100 µM
- TGI (SW-620 colon): 23.7 µM
- TGI (OVCAR-3 ovarian): > 100 µM
- TGI (UACC-62 melanoma): > 100 µM
- TGI (XF 498 CNS): > 100 µM
- TGI (A498 renal): > 100 µM
- TGI (NCI-H460 lung): > 100 µM
- TGI (MOLT-4 leukemia): > 100 µM
- TGI (SK-OV-3 ovarian): > 100 µM
- TGI (HL-60(TB) leukemia): > 100 µM
- TGI (HCT-15 colon): > 100 µM
- TGI (RPMI-8226 leukemia): > 100 µM
